Experimental findings from publication PMC12406253, “Exploration of the Neuromodulatory Properties of Fyn and GSK-3β Kinases Exploiting 7‑Azaindole-Based Inhibitors” (Journal of Medicinal Chemistry, 2025) are described below.

In one assay the target is T1, Aurora-A(h) (Homo sapiens, UniProt O14965).
T1 construct: purchased Eurofins KinaseProfiler (Eurofins Cerep)
The assay is described as follows: Eurofins KinaseProfiler radiometric kinase assay. The format is biochemical. The following applies: read-out: Aurora-A(h) % Residual activity.

The test system of assay [1] is neurospheres (NPCs from the subventricular zone). The assay is described as follows: Neurosphere differentiation, immunofluorescence of DCX, GFAP, OLIG2. As to conditions: 1 μM; 7 days. It is filed as cell-based, mice. An excerpt:
Lastly, we move forward to evaluate the neuromodulatory profile of selected compounds that involves the capability to polarize the spontaneous differentiation of neurospheres, which potentially can maturate in neurons or macroglia, such as astrocytes and oligodendrocytes. Modulating NPC differentiation is especially relevant under neurodegenerative conditions as it could offer an intriguing opportunity to achieve polyhedric therapeutic effects. Importantly, neuronal differentiation may help to counteract the progressive neuronal loss, while promoting oligodendrocyte phenotype could support remyelination and neuronal function and the astrocytic polarization may aid to foster a neuroprotective profile. Particularly, after 7 days of treatment at 1 μM, in the same experimental conditions previously reported, cells were fixed and stained with different antibody markers such as doublecortin (DCX) for the immature neurons, glial fibrillary acidic protein (GFAP) for astrocytes, and oligodendrocyte transcription factor 2 (OLIG2) for oligodendrocyte precursors for immunofluorescence analysis (Figure a). […] By driving the maturation of astrocytes, compounds 41 and 43 could exert neuroprotection through multiple mechanisms, including the secretion of neurotrophic factors, enhancement of antioxidant defenses, regulation of water balance, ion homeostasis, and glutamate buffering and recycling. Furthermore, astrocytes support the integrity of the blood–brain barrier (BBB) and aid in the refinement of neural networks via synaptic pruning, further reinforcing their role in preserving brain function and structure.
NSCs were initially obtained by SVZ microdissection of 6 months-old C57BL/6N wild-type male mice (Mus musculus) and routinely cultured in suspension in DMEM-F12 (Gibco; ThermoFisher Scientific, Waltham, MA, USA) supplemented with 2 mM glutamine, 10 μg/mL insulin from bovine pancreas (Sigma-Aldrich; St Louis, MO, USA), 20 ng/mL epidermal growth factor (EGF; PeproTech EC, London, UK), 20 ng/mL fibroblast growth factor-2 (FGF2; PeproTech), 1% N2 (ThermoFisher Scientific), 1% B27 (ThermoFisher Scientific), 10 units/mL penicillin, and 10 μg streptomycin.
To assess the effect of compounds of interest in NSCs differentiation, 30 spheres were plated on 13 mm glass coverslips, previously coated with Matrigel matrix (Corning; New York, USA), in complete DMEM F-12 medium, and treated with 1 μM of compounds of interest. After 7DIV, neurospheres were fixed for 20 min with 4% PFA in PBS 0.1% pH 7.4. Fixed neurospheres were permeabilized in 0.1% Triton/PBS and nonspecific sites were blocked for 1 h with 0.1% Triton/PBS and 5% normal goat serum (Sigma-Aldrich; St Louis, MO, USA). Cells were then incubated overnight at 4 °C with the following primary antibodies: Anti-Doublecortin DCX (Abcam, Cambridge, UK), GFAP (Dakopatts), OLIG2 (Santa Cruz Biotechnology), 1:500 dilution in 0.1% Triton/PBS with 2% normal goat serum. After 3 washes in 0.1% Triton/PBS, specific secondary antibodies were added for 2 h at RT in the dark: Donkey anti-Mouse IgG Alexafluor 555 (Abcam, Cambridge, UK), Goat anti-Rabbit IgG Alexafluor 555 (Abcam, Cambridge, UK), 1:1000 dilution in 0.1% Triton/PBS with 2% normal goat serum. Following 3 washes in 0.1% Triton/PBS, nuclei were stained with DAPI (2 μg/mL, Sigma-Aldrich) for 5 min. Glass coverslips were mounted by using Ultracruz Aqueous Mounting Medium with DAPI (Santa Cruz Biotechnology). Neurospheres confocal images were obtained with a Nikon EZ-C1 microscope (60× objective) and the z-stack function (1024 steps and 1 μm thickness layers; 40 total stacks). 3D image reconstruction was performed by using Fiji ImageJ2 software, z-project plugin, and selecting the sum stacks’ function. Fluorescence intensity index was estimated as the ratio of markers’ positive cells intensity/total cells fluorescence intensity stained with DAPI per ROI.

Another assay concerns the target T2, PKA(h) (Homo sapiens, UniProt P17612).
T2 construct: purchased Eurofins KinaseProfiler (Eurofins Cerep)
The assay is described as follows: Eurofins KinaseProfiler radiometric kinase assay. As to conditions: for remaining activity at 10 µM: read-out: PKA(h) % Residual activity. It is filed as biochemical.

The target of the next assay is T3, MAPKAP-K2(h) (Homo sapiens, UniProt P49137).
T3 construct: purchased Eurofins KinaseProfiler (Eurofins Cerep)
T3 sequence (P49137 whole entry): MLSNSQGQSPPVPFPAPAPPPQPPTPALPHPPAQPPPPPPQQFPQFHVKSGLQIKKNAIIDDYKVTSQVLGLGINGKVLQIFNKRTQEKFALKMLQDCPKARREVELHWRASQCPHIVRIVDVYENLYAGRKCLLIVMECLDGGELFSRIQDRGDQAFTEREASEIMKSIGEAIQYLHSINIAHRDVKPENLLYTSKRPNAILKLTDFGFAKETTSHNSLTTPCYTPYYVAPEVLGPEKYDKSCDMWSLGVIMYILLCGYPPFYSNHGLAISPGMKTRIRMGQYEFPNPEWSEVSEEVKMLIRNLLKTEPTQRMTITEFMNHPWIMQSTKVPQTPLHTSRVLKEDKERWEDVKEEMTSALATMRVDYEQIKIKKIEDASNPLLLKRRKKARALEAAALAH
The assay is described as follows: Eurofins KinaseProfiler radiometric kinase assay. The following applies: read-out: MAPKAP-K2(h) % Residual activity. The format is biochemical.

In the next assay the target is T4, MEK1(h) (Homo sapiens, UniProt Q02750).
T4 construct: purchased Eurofins KinaseProfiler (Eurofins Cerep)
The assay is described as follows: Eurofins KinaseProfiler radiometric kinase assay. The format is biochemical. As to conditions: read-out: MEK1(h) % Residual activity.

The target of a further assay is T5, ROCK-I(h) (Homo sapiens, UniProt Q13464).
T5 construct: purchased Eurofins KinaseProfiler (Eurofins Cerep)
T5 sequence (Q13464 whole entry): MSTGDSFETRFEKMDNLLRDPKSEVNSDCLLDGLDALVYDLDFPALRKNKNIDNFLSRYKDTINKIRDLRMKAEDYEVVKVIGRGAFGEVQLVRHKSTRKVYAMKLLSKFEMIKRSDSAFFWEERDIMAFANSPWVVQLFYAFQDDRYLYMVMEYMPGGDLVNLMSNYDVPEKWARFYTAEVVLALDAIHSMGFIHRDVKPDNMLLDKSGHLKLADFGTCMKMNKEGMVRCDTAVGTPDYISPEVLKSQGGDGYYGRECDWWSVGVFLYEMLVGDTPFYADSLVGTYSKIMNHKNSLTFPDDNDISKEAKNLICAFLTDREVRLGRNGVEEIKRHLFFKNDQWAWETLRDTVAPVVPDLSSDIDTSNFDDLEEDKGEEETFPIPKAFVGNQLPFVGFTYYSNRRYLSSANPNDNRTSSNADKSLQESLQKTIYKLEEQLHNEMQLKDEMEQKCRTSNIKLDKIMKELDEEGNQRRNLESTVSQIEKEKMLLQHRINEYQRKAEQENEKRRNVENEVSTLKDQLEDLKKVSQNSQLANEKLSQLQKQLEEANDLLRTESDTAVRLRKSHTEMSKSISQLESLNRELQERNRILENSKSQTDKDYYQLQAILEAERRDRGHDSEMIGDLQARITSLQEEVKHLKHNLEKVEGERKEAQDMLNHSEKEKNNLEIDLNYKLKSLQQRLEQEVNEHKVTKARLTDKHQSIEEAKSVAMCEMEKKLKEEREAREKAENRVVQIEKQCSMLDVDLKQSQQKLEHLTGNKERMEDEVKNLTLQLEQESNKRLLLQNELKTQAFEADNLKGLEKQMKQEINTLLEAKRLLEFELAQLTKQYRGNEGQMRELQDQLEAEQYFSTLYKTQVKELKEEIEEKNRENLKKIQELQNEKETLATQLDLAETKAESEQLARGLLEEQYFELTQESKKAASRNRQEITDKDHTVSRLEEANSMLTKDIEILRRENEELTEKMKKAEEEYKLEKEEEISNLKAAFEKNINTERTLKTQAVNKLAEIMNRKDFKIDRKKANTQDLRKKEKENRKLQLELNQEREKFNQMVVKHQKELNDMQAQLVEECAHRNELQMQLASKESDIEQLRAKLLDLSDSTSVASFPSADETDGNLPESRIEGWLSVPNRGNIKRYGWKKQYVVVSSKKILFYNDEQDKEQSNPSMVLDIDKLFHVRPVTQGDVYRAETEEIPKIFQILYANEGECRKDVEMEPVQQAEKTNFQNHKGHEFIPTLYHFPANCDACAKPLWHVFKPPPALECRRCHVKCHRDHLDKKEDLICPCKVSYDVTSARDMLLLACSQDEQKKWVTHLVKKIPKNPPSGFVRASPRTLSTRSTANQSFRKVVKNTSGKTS
The assay is described as follows: Eurofins KinaseProfiler radiometric kinase assay. It is filed as biochemical. As to conditions: read-out: ROCK-I(h) % Residual activity.

Another assay deals with T6, Rsk1(h) (Homo sapiens, UniProt Q15418).
T6 construct: purchased Eurofins (Eurofins Cerep) KinaseProfiler
T6 sequence (Q15418 whole entry): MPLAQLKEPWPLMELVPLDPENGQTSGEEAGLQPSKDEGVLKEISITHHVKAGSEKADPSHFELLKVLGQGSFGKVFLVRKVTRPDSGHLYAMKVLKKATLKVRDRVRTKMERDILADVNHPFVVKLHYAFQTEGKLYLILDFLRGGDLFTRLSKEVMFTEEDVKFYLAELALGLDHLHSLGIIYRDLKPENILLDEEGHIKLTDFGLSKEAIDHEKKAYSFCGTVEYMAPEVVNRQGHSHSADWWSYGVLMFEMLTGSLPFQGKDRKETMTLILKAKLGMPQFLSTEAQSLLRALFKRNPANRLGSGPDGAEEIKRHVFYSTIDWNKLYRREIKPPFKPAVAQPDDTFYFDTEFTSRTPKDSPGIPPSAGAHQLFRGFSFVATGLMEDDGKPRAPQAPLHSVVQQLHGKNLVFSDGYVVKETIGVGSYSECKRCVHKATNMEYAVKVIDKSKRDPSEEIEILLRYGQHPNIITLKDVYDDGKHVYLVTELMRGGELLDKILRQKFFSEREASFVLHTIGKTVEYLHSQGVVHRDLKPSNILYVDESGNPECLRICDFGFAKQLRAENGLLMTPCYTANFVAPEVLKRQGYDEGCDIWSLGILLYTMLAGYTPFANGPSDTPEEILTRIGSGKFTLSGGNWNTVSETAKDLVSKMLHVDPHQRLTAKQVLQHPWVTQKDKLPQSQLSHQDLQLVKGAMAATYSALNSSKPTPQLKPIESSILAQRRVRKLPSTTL
The assay is described as follows: Eurofins KinaseProfiler radiometric kinase assay. As to conditions: for remaining activity at 10 µM: read-out: Rsk1(h) % Residual activity. The format is biochemical.

For a further assay, the target named is T7, Pim-1(h) (Homo sapiens, UniProt P11309).
T7 construct: purchased Eurofins KinaseProfiler (Eurofins Cerep)
T7 sequence (P11309 whole entry): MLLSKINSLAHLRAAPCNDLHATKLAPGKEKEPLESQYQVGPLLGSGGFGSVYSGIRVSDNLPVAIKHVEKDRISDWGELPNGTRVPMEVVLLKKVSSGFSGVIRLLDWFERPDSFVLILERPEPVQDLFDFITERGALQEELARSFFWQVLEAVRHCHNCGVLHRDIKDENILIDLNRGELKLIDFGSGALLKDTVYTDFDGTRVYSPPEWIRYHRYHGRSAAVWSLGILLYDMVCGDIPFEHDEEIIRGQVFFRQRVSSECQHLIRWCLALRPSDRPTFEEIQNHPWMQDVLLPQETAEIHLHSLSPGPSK
The assay is described as follows: Eurofins KinaseProfiler radiometric kinase assay. As to conditions: read-out: Pim-1(h) % Residual activity. It is filed as biochemical.

For assay [2], the system named is primary rat cerebellar granule neurons (CGNs). The assay is described as follows: Neuroprotection in CGNs, serum/potassium deprivation (MTT). The format is cell-based. As to conditions: 5, 10, and 25 μM, 48 h. An excerpt: First, we evaluated the neuroprotective properties of the selected compounds in the same cell line, once the expression of Fyn and GSK-3β in this cellular model was verified (Figure S2), after a serum/potassium deprivation experiment, which simulates physiological aging (and mortality), triggering around 20% of cell death. In particular, 7 days differentiated CGNs were exposed to serum-free BME medium with low extracellular concentration of K^+ ions and treated at selected doses (i.e., 5, 10, and 25 μM) of compounds for 48 h. Neuronal viability was then determined with an MTT assay.
To evaluate the neuroprotective effect of our compounds, we tested increasing concentrations (5 μM, 10 μM, 25 μM) of compounds of interest in differentiated CGNs switched to serum-free BME medium with 5 mM KCl (serum-potassium deprivation) for 48 h to mimic in vitro the naturally occurring death of granule cells. Neuroprotection was evaluated through MTT assay.
For MTT assay, thiazolyl blue was added to the culture medium at a final concentration of 0.1 mg/mL. Following a 20 min incubation at 37 °C in the dark, the MTT precipitate was dissolved in 0.1 M Tris–HCl pH 7.5 buffer containing 5% Triton X-100 (all from Sigma-Aldrich) and absorbance was read at 570 nm in a microplate spectrophotometric reader (Bio-Rad).

For another assay, the target named is T8, AMPKα1(h) (Homo sapiens, UniProt Q13131).
T8 construct: purchased Eurofins KinaseProfiler (Eurofins Cerep)
T8 sequence (Q13131 whole entry): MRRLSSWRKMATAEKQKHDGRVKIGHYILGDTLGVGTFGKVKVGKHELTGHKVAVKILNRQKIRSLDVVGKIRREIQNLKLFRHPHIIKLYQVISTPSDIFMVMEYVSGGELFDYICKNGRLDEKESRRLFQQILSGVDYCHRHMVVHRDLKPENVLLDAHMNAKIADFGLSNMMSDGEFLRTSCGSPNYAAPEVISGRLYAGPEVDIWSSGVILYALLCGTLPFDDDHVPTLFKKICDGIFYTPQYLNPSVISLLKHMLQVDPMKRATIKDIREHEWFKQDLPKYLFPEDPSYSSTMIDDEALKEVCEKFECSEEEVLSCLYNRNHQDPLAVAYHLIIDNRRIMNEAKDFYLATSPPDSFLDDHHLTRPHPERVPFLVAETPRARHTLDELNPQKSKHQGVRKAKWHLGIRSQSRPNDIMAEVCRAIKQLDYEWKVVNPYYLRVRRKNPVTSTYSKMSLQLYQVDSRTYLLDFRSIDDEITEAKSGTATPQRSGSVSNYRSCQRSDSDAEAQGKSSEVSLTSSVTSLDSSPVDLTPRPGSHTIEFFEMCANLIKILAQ
T8 sequence (Q9Y478 whole entry partner): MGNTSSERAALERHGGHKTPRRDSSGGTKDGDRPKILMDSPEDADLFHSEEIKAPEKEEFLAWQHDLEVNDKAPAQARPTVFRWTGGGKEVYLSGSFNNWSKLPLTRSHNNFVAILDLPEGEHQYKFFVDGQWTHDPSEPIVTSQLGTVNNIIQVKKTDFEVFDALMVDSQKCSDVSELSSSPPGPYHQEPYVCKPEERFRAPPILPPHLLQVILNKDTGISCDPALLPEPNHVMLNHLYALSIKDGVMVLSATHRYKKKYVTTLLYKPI
T8 sequence (P54619 whole entry partner): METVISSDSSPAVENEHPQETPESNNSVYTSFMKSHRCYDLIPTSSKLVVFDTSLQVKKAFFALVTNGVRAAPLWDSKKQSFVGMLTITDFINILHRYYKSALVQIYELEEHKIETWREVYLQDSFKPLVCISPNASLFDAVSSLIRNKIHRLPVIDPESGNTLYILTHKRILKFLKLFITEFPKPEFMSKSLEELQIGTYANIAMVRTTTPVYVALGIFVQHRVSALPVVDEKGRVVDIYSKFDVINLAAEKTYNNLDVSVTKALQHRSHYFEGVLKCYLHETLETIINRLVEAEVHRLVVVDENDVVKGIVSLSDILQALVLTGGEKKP
The assay is described as follows: Eurofins KinaseProfiler radiometric kinase assay. As to conditions: read-out: AMPKα1(h) % Residual activity. The format is biochemical.

The target of another assay is T9, CDK6/cyclinD3(h) (Homo sapiens, UniProt Q00534).
T9 construct: purchased Eurofins KinaseProfiler (Eurofins Cerep)
T9 sequence (Q00534 whole entry): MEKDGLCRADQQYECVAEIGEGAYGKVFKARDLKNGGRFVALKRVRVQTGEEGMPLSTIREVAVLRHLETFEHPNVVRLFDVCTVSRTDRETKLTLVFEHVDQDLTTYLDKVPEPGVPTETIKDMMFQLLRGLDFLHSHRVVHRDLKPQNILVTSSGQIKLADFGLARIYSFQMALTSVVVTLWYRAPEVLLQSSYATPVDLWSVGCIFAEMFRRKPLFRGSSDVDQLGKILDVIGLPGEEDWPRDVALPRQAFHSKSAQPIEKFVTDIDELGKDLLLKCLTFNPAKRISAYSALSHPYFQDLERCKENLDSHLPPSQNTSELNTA
T9 sequence (P30281 whole entry partner): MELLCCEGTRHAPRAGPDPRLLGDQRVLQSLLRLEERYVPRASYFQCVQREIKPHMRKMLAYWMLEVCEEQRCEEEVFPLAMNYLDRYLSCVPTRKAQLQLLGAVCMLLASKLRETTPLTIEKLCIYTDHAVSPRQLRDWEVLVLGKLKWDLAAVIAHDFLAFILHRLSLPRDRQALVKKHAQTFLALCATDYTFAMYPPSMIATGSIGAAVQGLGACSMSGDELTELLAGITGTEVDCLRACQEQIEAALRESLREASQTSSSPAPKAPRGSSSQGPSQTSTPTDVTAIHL
The assay is described as follows: Eurofins KinaseProfiler radiometric kinase assay. The format is biochemical. As to conditions: read-out: CDK6/cyclinD3(h) % Residual activity.

T1 sequence (O14965 whole entry): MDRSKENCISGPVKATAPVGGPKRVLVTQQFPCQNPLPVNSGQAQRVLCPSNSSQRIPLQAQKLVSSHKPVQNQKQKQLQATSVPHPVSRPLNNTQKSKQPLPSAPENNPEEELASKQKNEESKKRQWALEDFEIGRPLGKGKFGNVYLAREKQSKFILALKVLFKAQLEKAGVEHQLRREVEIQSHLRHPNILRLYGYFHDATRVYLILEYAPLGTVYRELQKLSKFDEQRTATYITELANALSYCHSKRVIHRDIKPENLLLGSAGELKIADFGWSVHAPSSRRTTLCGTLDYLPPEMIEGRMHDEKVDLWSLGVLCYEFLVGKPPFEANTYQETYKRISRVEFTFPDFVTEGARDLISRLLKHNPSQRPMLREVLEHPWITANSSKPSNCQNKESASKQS

On to `Br.Cc1sc(NCc2ccccc2)nc1-c1c[nH]c2ncc(Br)cc12` [Compound 41, N-Benzyl-4-(5-bromo-1H-pyrrolo[2,3-b]pyridin-3-yl)-5-methylthiazol-2-amine Hydrobromide], for which the remaining activity at 10 µM turned out to be 11% at Aurora-A(h); 111% at PKA(h); 33% on MAPKAP-K2(h); 61% on MEK1(h); 93% on ROCK-I(h); 44% at Rsk1(h). For the same compound, the remaining activity at 10 µM at Pim-1(h) is 20%; on AMPKα1(h), 54%; at CDK6/cyclinD3(h), 86%. In addition, in assay [1], the “Differentiation toward astrocytes (GFAP)” value is reported as “notably directed the differentiation toward the astrocytic phenotype”. Also, the “Differentiation toward oligodendrocytes (OLIG2)” value in assay [1] is given as “markedly deleterious for oligodendrocytes”. Besides, the “Neuroprotection on CGNs (cell viability after serum/potassium deprivation)” value in [2] is “mitigate the physiological senescence and mortality rate”.
As to `Br.Cc1sc(NCc2ccnc(Cl)c2)nc1-c1c[nH]c2ncccc12` [Compound 43, N-((2-Chloropyridin-4-yl)methyl)-5-methyl-4-(1H-pyrrolo[2,3-b]pyridin-3-yl)thiazol-2-amine Hydrobromide], the remaining activity at 10 µM was determined as 27% at Aurora-A(h); 8% on PKA(h); 45% at MAPKAP-K2(h); 35% on MEK1(h); 76% on ROCK-I(h); 3% on Rsk1(h). The figures for the remaining activity at 10 µM at Pim-1(h), on AMPKα1(h) and at CDK6/cyclinD3(h) were 55%, 60% and 90%, respectively. The “Differentiation toward astrocytes (GFAP)” value in assay [1] is reported as “notably directed the differentiation toward the astrocytic phenotype”. Further, the “Differentiation toward oligodendrocytes (OLIG2)” value in [1] is recorded as “this effect was mitigated”. Further, the inhibition at 10 µM against PKA(h) and against Rsk1(h) was above 90% throughout. Besides, the “Neuroprotection on CGNs (cell viability after serum/potassium deprivation)” value in assay [2] is “mitigate the physiological senescence and mortality rate”.
